Entries after “also recorded” stand apart in the source; their conditions may differ.
Experiments:
Format in all cases: in vivo
[1] = test system: DIO mice; test: Hyperinsulinemic euglycemic clamp, body weights and plasma parameters in DIO mice after acute treatment; conditions: for Body weight / FFA / Glucose / Glycerol / Insulin: single i.p. injection, mean ± SD; for FFA / Glucose / Glycerol / Insulin: plasma
Experimental: (§1) The effect of acute treatment of CNTO 736 (Table 4, SEQ ID NO:70) on insulin sensitivity and lipid metabolism was evaluated in C57Bl mice maintained on a high fat diet for 10 weeks (DIO mice). […] The effect of chronic treatment of CNTO 736 on insulin sensitivity and lipid metabolism was evaluated in C57Bl mice maintained on a high fat diet for 10 weeks. […] The hyperinsulinemic-euglycemic clamp was performed under Acepromazine (6.25 mg/kg)/Midazolam (6.25 mg/kg)/Fentanyl (0.3125 mg/kg) anaesthesia in the following manner. Mice had free access to high fat food and water until 10 hours prior to the clamp. […] Subsequently, insulin was administered in a primed (4.5 mU) continuous (6.8 mU/h) i.v. infusion for approximately 2 h to attain steady state circulating insulin levels of 4 ng/ml. […] VLDL-TG production was calculated from the slope of the concentration curve and expressed as gmol/kg/min. Turnover rates of glucose (μmol/min/kg) was calculated in basal and hyperinsulinemic conditions as the rate of tracer infusion (dpm/min) divided by the plasma specific activity of 14C-glucose (dpm/μmol). The ratio was corrected for body weight. Endogenous glucose production (EGP) was calculated as the difference between the tracer-derived rate of glucose appearance and the infusion rate of glucose. Glucose disposal was calculated based on the concentration of 14C-glucose normalized to infusion rate of glucose. The statistical significance (p<0.05) in various measures of glucose turnover and VLDL production among groups was tested by analysis of variance.

[2] = test system: DIO mice; test: Hyperinsulinemic euglycemic clamp, body weights and plasma parameters in DIO mice after chronic treatment; conditions: for Body weight / FFA / Glycerol / Insulin / Glucose: daily i.p. injections weeks 7 through 10, mean ± SD; for FFA / Glycerol / Insulin / Glucose: plasma
Experimental: as §1, with “variance. […] Two hours after the last dose, mice were subjected to hyperinsulinemic euglycemic clamp.” for “variance.”

[3] = test system: DIO mice; test: VLDL production in DIO mice after acute treatment
Experimental: (§2) The effect of acute treatment of CNTO 736 (Table 4, SEQ ID NO:70) on insulin sensitivity and lipid metabolism was evaluated in C57Bl mice maintained on a high fat diet for 10 weeks (DIO mice). […] The effect of chronic treatment of CNTO 736 on insulin sensitivity and lipid metabolism was evaluated in C57Bl mice maintained on a high fat diet for 10 weeks.
(§3) Blood samples (20 μl) were taken at t=0, 10, 20, 40 and 60 minutes after injection to determine the concentration of plasma triglycerides (TG). VLDL-TG production was calculated from the slope of the concentration curve and expressed as gmol/kg/min. Turnover rates of glucose (μmol/min/kg) was calculated in basal and hyperinsulinemic conditions as the rate of tracer infusion (dpm/min) divided by the plasma specific activity of 14C-glucose (dpm/μmol). The ratio was corrected for body weight. Endogenous glucose production (EGP) was calculated as the difference between the tracer-derived rate of glucose appearance and the infusion rate of glucose. Glucose disposal was calculated based on the concentration of 14C-glucose normalized to infusion rate of glucose. The statistical significance (p<0.05) in various measures of glucose turnover and VLDL production among groups was tested by analysis of variance.

[4] = test system: DIO mice; test: VLDL production in DIO mice after chronic treatment; conditions: either dose of CNTO 736
Experimental: as §2, §3

[5] = test system: Sprague-Dawley rats; test: Intracerebroventricular (icv) dosing in rats: food intake, water intake, body weight; conditions: icv 3 nmols
Excerpt: Sprague-Dawley rats weighing 250-350 g were cannulized into the lateral ventricle at the following coordinates: −0.80 mm anterior, +1.2 mm lateral to bregma, −3.2 mm ventral to bregma. Animals were submitted for Angiotensin II testing to confirm that the cannulas were placed appropriately. Rats were acclimated to a reversed light/dark cycle and to handling. A 24-hour fasted/refed measurement was taken after a single PBS injection in order to establish a feeding baseline. Animals were evenly distributed according to 24-hour food intake from PBS injections (3 groups of 10 animals). Seven-ten days following PBS injection, rats were fasted for 24 hours and were dosed icv prior to entering the dark cycle.

[6] = acute, i.p., CNTO 736 1 mg/kg and 0.1 mg/kg, exenatide 7.1 ug/ml, clamp 2 hours post dosing, differences do not reach statistical significance
[7] = acute, CNTO 736 0.1 mgk, Hyperinsulinemic
[8] = acute, CNTO 736 1 mgk, Hyperinsulinemic
[9] = chronic, CNTO 736 0.1 mgk, Basal
[10] = chronic, CNTO 736 0.1 mgk, Hyperinsulinemic
[11] = chronic, CNTO 736 1 mgk, Hyperinsulinemic
[12] = 24 hours fasted rats, first 12 hours following dosing
[13] = second 12 hours following dosing (12-24 hours)

For “CNTO 736: a GLP-1 receptor agonist, a GLP-1 mimetibody construct; sequence in Table 4 (SEQ ID NO:70)”, the “glycerol turnover (lipolysis)” value ([1]; acute administration, either dose, basal (fasting) or hyperinsulinemic conditions) was “did not affect glycerol turnover”, the basal glucose production [1, 6] was “tend to decrease the basal glucose production” and the “whole body glucose disposal” value [1, 6] was “increase the whole body glucose disposal”. The Body weight ([1]; acute, CNTO 736 0.1 mgk, Basal) was 31.3 ± 1.6 g, the Body weight [1, 7] was 31.3 ± 1.6 g and the Body weight ([1]; acute, CNTO 736 1 mgk, Basal) was 31.2 ± 2.2 g. For the same substance, the Body weight [1, 8] was 31.2 ± 2.2 g, the FFA ([1]; acute, CNTO 736 0.1 mgk, Basal) was 1.1 ± 0.5 mmol/L and the Glucose ([1]; acute, CNTO 736 0.1 mgk, Basal) was 5.5 ± 1.2 mmol/L. It also gave a Glycerol ([1]; acute, CNTO 736 0.1 mgk, Basal) of 0.2 ± 0.1 mmol/L, an Insulin ([1]; acute, CNTO 736 0.1 mgk, Basal) of 1.1 ± 0.8 ng/mL and an FFA [1, 7] of 0.7 ± 0.3 mmol/L. It also gave a Glucose [1, 7] of 7.3 ± 0.5 mmol/L, a Glycerol [1, 7] of 0.1 ± 0.1 mmol/L and an Insulin [1, 7] of 3.5 ± 1.3 ng/mL. For the same substance, the FFA ([1]; acute, CNTO 736 1 mgk, Basal) was 1.1 ± 0.5 mmol/L, the Glycerol ([1]; acute, CNTO 736 1 mgk, Basal) was 0.2 ± 0.1 mmol/L and the Insulin ([1]; acute, CNTO 736 1 mgk, Basal) was 0.9 ± 0.6 ng/mL. The FFA [1, 8] was 0.6 ± 0.4 mmol/L, the Glucose [1, 8] was 8.0 ± 0.8 mmol/L and the Glycerol [1, 8] was 0.1 ± 0.1 mmol/L. The Insulin [1, 8] was 4.5 ± 1.7 ng/mL, the “glycerol turnover (lipolysis)” value ([2]; chronic administration, either dose, basal (fasting) or hyperinsulinemic conditions) was “did not affect glycerol turnover” and the “insulin action / peripheral insulin sensitivity” value ([2]; chronic dosing, mice with diet-induced obesity) was “improve insulin action; also recorded: significantly improves peripheral insulin sensitivity”. The Body weight [2, 9] was 26.1 ± 1.9 g, the Body weight [2, 10] was 26.1 ± 1.9 g and the Body weight [2, 11] was 25.1 ± 1.3 g. For the same substance, the “gluconeogenesis in the fasting state (de novo glucose production)” value ([2]; chronic, i.p. daily for 4 weeks) was “significantly decreased gluconeogenesis; also recorded: inhibits hepatic gluconeogenesis”, the “basal hepatic glucose production” value ([2]; chronic, i.p. daily for 4 weeks, both doses of CNTO 736 (1 or 0.1 mg/kg), exendin-4 7.1 μg/kg) was “significantly decreased” and the “insulin-inhibition of hepatic glucose production” value ([2]; chronic, i.p. daily for 4 weeks, both doses of CNTO 736, exendin-4 7.1 μg/kg) was “increased insulin-inhibition of hepatic glucose production”. For the same substance, the “whole body glucose disposal in the hyperinsulinemic state” value ([2]; chronic, i.p. daily for 4 weeks, high dose of CNTO 736 (1 mg/kg), exendin-4 7.1 μg/kg) was “significantly increased”, the “gluconeogenesis in the fasting state (de novo glucose production)” value ([2]; chronic, i.p. daily for 4 weeks, listed as CNT0736) was “inhibited de novo glucose production” and the FFA [2, 9] was 1.1 ± 0.3 mmol/L. It also gave a Glycerol [2, 9] of 0.2 ± 0.0 mmol/L, an Insulin [2, 9] of 1.1 ± 0.6 ng/mL and an FFA [2, 10] of 0.5 ± 0.1 mmol/L. It also gave a Glucose [2, 10] of 7.6 ± 1.1 mmol/L, a Glycerol [2, 10] of 0.1 ± 0.1 mmol/L and an Insulin [2, 10] of 4.6 ± 1.0 ng/mL. It also gave an FFA ([2]; chronic, CNTO 736 1 mgk, Basal) of 1.1 ± 0.2 mmol/L, a Glycerol ([2]; chronic, CNTO 736 1 mgk, Basal) of 0.2 ± 0.1 mmol/L and an Insulin ([2]; chronic, CNTO 736 1 mgk, Basal) of 1.4 ± 1.3 ng/mL. The FFA [2, 11] was 0.4 ± 0.1 mmol/L, the Glucose [2, 11] was 7.6 ± 0.9 mmol/L and the Glycerol [2, 11] was 0.1 ± 0.1 mmol/L. For the same substance, the Insulin [2, 11] was 5.0 ± 1.9 ng/mL, the “basal or hyperinsulinemic rate of VLDL production” value [3] was “did not change” and the “basal and hyperinsulinemic rate of VLDL production” value [4] was “significantly decreased; also recorded: decreases VLDL production”. The food intake [5, 12] was “significant reduction”, the water intake [5, 12] was “significant reduction” and the food intake [5, 13] was “significant reduction in food intake”. For the same substance, the water intake [5, 13] was “observed only with exendin-4 treatment”.
